According to ChEMBL document CHEMBL1147074, “Reevaluation of telomerase inhibition by quadruplex ligands and their mechanisms of action” (Proc Natl Acad Sci U S A, 2007):
Active and inactive are the calls of the source. The calls are words filed in the database; no cut-off is given here.

Assays:
[1] = target: T1, Telomerase reverse transcriptase (Homo sapiens, UniProt O14746); assay: Decrease in telomerase processivity assessed as decrease in telomerase elongation in presence of Telo3R primer by primer extension assay
[2] = target: T1, Telomerase reverse transcriptase; assay: Inhibition of human telomerase expressed in HEK293T cells in presence of primer (T2AG3)3 by primer extension assay; assay type: cell-based; conditions: hek-293t
[3] = target: T1, Telomerase reverse transcriptase; assay: Inhibition of human telomerase expressed in HEK293T cells treated before telomerase elongation by telomeric repeat amplification protocol assay; assay type: cell-based; conditions: hek-293t
[4] = target: T1, Telomerase reverse transcriptase; assay: Inhibition of human telomerase expressed in HEK293T cells in presence of primer TS by primer extension assay; assay type: cell-based; conditions: hek-293t
[5] = target: T1, Telomerase reverse transcriptase; assay: Inhibition of human telomerase expressed in HEK293T cells in presence of primer (T2AG3)4 by primer extension assay; assay type: cell-based; conditions: hek-293t

T1 sequence (O14746 whole entry): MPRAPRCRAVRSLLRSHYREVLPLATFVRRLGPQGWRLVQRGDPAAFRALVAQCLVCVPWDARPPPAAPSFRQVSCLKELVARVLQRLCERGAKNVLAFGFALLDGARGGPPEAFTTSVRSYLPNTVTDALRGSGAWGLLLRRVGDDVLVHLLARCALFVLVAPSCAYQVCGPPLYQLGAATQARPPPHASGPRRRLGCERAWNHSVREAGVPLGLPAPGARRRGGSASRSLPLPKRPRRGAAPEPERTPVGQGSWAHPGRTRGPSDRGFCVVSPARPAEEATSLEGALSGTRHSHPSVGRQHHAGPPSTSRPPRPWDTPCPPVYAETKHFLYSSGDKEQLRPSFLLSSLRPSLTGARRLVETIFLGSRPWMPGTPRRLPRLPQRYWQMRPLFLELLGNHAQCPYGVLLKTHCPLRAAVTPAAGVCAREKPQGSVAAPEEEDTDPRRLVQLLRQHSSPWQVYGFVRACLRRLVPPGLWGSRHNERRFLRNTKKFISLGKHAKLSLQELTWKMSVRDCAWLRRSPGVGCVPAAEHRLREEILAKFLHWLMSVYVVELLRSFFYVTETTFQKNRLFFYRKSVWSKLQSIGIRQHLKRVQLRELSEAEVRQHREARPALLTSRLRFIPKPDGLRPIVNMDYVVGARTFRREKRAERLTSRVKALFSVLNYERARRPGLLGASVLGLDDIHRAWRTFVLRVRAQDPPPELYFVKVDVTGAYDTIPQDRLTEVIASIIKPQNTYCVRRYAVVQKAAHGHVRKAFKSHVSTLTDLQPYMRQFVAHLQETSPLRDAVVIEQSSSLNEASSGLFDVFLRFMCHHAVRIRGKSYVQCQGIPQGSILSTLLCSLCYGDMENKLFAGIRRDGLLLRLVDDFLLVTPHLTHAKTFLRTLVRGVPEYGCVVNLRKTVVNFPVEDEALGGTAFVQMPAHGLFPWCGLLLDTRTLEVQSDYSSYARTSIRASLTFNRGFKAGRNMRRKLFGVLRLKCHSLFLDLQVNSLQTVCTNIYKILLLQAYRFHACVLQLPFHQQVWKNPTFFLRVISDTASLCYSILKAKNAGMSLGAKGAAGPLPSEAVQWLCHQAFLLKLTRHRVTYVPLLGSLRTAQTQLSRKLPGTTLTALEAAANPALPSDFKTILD

Question: `CN(C)c1ccc(Nc2c3ccc(NC(=O)CCN4CCCC4)cc3nc3cc(NC(=O)CCN4CCCC4)ccc23)cc1` was tested. Which Activity [1] did it give?
Answer: inactive

Question: What about the IC50 [2] of the same molecule?
Answer: 830 nM

Question: And the IC50 [3]?
Answer: 45 nM

Question: For `C[n+]1cc(NC(=O)c2ccc3ccc4ccc(C(=O)Nc5cc6ccccc6[n+](C)c5)nc4c3n2)cc2ccccc21`, which Activity [1] is on record?
Answer: Active

Question: How did the Activity [1] turn out when `C[n+]1cc(NC(=O)c2cccc(C(=O)Nc3cc4ccccc4[n+](C)c3)n2)cc2ccccc21` was run?
Answer: Active

Question: With `C[n+]1ccc(-c2c3nc(c(-c4cc[n+](C)cc4)c4ccc([nH]4)c(-c4cc[n+](C)cc4)c4ccc([nH]4)c(-c4cc[n+](C)cc4)c4nc2C=C4)C=C3)cc1` as the molecule, how does the Activity [1] read?
Answer: inactive

Question: With `Cc1oc2nc1-c1nc(co1)-c1nc(co1)-c1nc(co1)-c1nc(co1)-c1nc(co1)C1=NC(CS1)c1nc-2c(C)o1` (stereo not drawn) [TELOMESTATIN] as the molecule, how does the IC50 [4] read?
Answer: 1150 nM

Question: And the IC50 [5]?
Answer: 58 nM

Question: What about the Activity [1] of the same molecule?
Answer: inactive

Question: And the IC50 [2]?
Answer: 900 nM

Question: What about the IC50 [3] of the same molecule?
Answer: 0.64 nM

Question: `C[n+]1ccc(-c2c3nc(c(-c4cc[n+](C)cc4)c4ccc([nH]4)c(-c4cc[n+](C)cc4)c4nc(c(-c5cc[n+](C)cc5)c5ccc2[nH]5)C=C4)C=C3)cc1` [TMPYP4] was tested. Which IC50 [2] did it give?
Answer: 710 nM

Question: What about the IC50 [3] of the same molecule?
Answer: 550 nM
